Reference: ChEMBL document CHEMBL4699440, “Comprehensive review on the anti-bacterial activity of 1,2,3-triazole hybrids” (Eur J Med Chem, 2019)
Converted amounts (≈) assume the structure as drawn.

Key:
Staphylococcus aureus [1] = experiment: Antibacterial activity against Staphylococcus aureus ATCC 6538p incubated for 24 hrs by broth dilution method; format: functional
Micrococcus luteus [2] = experiment: Antibacterial activity against Micrococcus luteus IFC 12708 incubated for 24 hrs by broth dilution method; format: functional
Bacillus spizizenii = experiment: Antibacterial activity against Bacillus subtilis ATCC 6633 incubated for 24 hrs by broth dilution method; format: functional
Escherichia coli = experiment: Antibacterial activity against Escherichia coli ATCC 25922 incubated for 24 hrs by broth dilution method; format: functional
Salmonella typhimurium = experiment: Antibacterial activity against Salmonella typhimurium ATCC 14028 incubated for 24 hrs by broth dilution method; format: functional, Salmonella enterica subsp. enterica serovar Typhimurium; settings: Salmonella enterica
Proteus vulgaris = experiment: Antibacterial activity against Proteus vulgaris ATCC 3851 incubated for 24 hrs by broth dilution method; format: functional
Bacillus cereus [3] = experiment: Antibacterial activity against Bacillus cereus RCMB-010067 assessed as diameter of inhibition zone at 5 mg/ml by diffusion technique; format: functional; settings: read-out: IZ
Pseudomonas fluorescens = experiment: Antibacterial activity against Pseudomonas fluorescens NCIM 2173 incubated for 24 hrs; format: functional
Micrococcus luteus [4] = experiment: Antibacterial activity against Micrococcus Luteus ATCC 398 incubated for 24 hrs; format: functional
[5] = tested on: Sphingomonas paucimobilis; experiment: Antibacterial activity against Flavobacterium devorans ATCC 10829 incubated for 24 hrs; format: functional
Staphylococcus aureus [6] = experiment: Antibacterial activity against Staphylococcus aureus RCMB-010010 assessed as diameter of inhibition zone at 5 mg/ml by diffusion technique; format: functional; settings: read-out: IZ
Bacillus cereus [7] = experiment: Antibacterial activity against Bacillus cereus ATCC 6630 incubated for 24 hrs; format: functional
Staphylococcus aureus [8] = experiment: Antibacterial activity against Staphylococcus aureus ATCC 29737 incubated for 24 hrs; format: functional

Compound | MIC (Staphylococcus aureus [1]) [µg/mL] | MIC (Micrococcus luteus [2]) [µg/mL] | MIC (Bacillus spizizenii) [µg/mL] | MIC (Escherichia coli) [µg/mL] | MIC (Salmonella typhimurium) [µg/mL] | MIC (Proteus vulgaris) [µg/mL] | zone of inhibition at 5000 µg/mL (Bacillus cereus [3]) [mm] | MIC (Pseudomonas fluorescens) [µg/mL] | MIC (Micrococcus luteus [4]) [µg/mL] | MIC [5] [µg/mL] | zone of inhibition at 5000 µg/mL (Staphylococcus aureus [6]) [mm] | MIC (Bacillus cereus [7]) [µg/mL] | MIC (Staphylococcus aureus [8]) [µg/mL]
CC1(C)O[C@H]2O[C@@H]([C@H]3SC(Cc4nc5ccccc5[nH]4)C(=O)N3c3ccc(Cl)cc3)[C@@H](OCc3cn(-c4ccc(Cl)cc4)nn3)[C@H]2O1 (some centres undefined) | 1.56 (≈ 2.25 µM) | 1.56 (≈ 2.25 µM) | 1.56 (≈ 2.25 µM) | 1.56 (≈ 2.25 µM) | 1.56 (≈ 2.25 µM) | 1.56 (≈ 2.25 µM) |  |  |  |  |  |  | 
CC1(C)S[C@@H]2[C@H](NC(=O)[C@H](N)c3ccccc3)C(=O)N2[C@H]1C(=O)O [AMPICILLIN] | 1.56 (≈ 4.46 µM) | 1.56 (≈ 4.46 µM) | 1.56 (≈ 4.46 µM) | 1.56 (≈ 4.46 µM) | 1.56 (≈ 4.46 µM) | 1.56 (≈ 4.46 µM) | 23.8 | 2 (≈ 5.72 µM) | 2 (≈ 5.72 µM) | 2 (≈ 5.72 µM) | 32.4 | 2 (≈ 5.72 µM) | 2 (≈ 5.72 µM)
